In patent US10808235B2, “Beta-glucosidase and uses thereof” (priority 2015, dated 2020):

Tests used:
Assay type in all cases: biochemical
[1] = target: T1, Rasamsonia emersonii beta-glucosidase, wild-type, SEQ ID NO: 2 (Rasamsonia emersonii, UniProt Q8TGI8); experiment: Kinetics of cellobiose hydrolysis with and without 20 g/l glucose (NMR, MTP scale, model fit), wild type; settings: 10 g/l cellobiose, pH 4.5, 65° C., 20 min; Km set to 0.1 g/L
T1 sequence (Q8TGI8 20-857): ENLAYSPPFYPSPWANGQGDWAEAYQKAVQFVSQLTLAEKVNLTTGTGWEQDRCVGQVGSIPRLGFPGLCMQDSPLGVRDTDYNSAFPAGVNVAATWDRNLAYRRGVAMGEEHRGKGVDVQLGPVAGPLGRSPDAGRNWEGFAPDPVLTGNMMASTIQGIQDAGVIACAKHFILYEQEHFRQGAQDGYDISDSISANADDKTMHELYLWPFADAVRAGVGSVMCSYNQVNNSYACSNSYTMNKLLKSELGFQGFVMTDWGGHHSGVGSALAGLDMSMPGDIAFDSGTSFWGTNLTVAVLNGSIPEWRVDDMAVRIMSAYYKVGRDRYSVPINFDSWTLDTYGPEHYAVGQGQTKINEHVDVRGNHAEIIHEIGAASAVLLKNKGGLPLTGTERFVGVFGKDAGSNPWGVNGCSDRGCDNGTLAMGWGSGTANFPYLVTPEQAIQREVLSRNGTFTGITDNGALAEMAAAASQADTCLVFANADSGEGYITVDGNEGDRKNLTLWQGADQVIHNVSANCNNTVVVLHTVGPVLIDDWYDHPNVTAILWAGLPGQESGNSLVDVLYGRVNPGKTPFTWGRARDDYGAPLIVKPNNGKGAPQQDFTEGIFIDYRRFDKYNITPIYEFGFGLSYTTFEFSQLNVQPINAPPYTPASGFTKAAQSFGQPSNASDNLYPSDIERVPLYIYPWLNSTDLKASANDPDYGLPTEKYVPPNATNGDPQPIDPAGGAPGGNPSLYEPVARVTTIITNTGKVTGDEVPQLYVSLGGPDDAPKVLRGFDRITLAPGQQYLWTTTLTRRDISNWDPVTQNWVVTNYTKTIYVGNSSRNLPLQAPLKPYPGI
Procedure: (§1) For the follow-up experiment, five dilutions were made: 2-fold, 4-fold, 8-fold, 16-fold and 32-fold. The beta-glucosidase activity of the variant polypeptides and the wild-type beta-glucosidase was further analyzed in a MTP scale activity assay using cellobiose as substrate and monitoring cellobiose hydrolysis via glucose formation with NMR of the undiluted sample and the five dilutions. The same assay was performed for all dilutions in presence of 20 g/l glucose to determine the glucose tolerance. […] Subsequently, cellobiose and glucose levels in the samples were analyzed with NMR.
(§2) After enzymatic incubation, 100 μl of internal standard solution containing 20 g/I maleic acid and EDTA (40 g/L) in demineralized water, was added to each sample. […] 1D ^1H NMR spectra were recorded on a Bruker Avance III HD 500 MHz, equipped with a He cooled cryo-probe, using a pulse program without water suppression at a temperature of 29° C. with a 90 degrees excitation pulse, acquisition time of 2.7 s and relaxation delay of 30 s. The analyte concentrations (in g/L) were calculated based on the following signals (δ relative to DSS): Cellobiose: H1′ cellobiose peak at 4.50 ppm (d, 1H, J=8 Hz); Glucose: α-H1 glucose/α-H1 cellobiose peak at 5.22 ppm (d, 0.38 H, J=4 Hz). The glucose concentration was determined after correction for cellobiose. […]

[2] = target: Rasamsonia emersonii beta-glucosidase variant polypeptide 1 (SEQ ID NO: 2 with substitutions M90L + M335V + M485I) (Rasamsonia emersonii, UniProt Q8TGI8, M335V/M485I/M90L); experiment: Kinetics of cellobiose hydrolysis with and without 20 g/l glucose (NMR, MTP scale, model fit), variant polypeptide 1; settings: 10 g/l cellobiose, pH 4.5, 65° C., 20 min; Km set to 0.1 g/L
Procedure: as §1, §2

[3] = target: Rasamsonia emersonii beta-glucosidase variant polypeptide 2 (SEQ ID NO: 2 with substitution N103A) (Rasamsonia emersonii, UniProt Q8TGI8, N103A); experiment: Kinetics of cellobiose hydrolysis with and without 20 g/l glucose (NMR, MTP scale, model fit), variant polypeptide 2; settings: 10 g/l cellobiose, pH 4.5, 65° C., 20 min; Km set to 0.1 g/L
Procedure: as §1, §2

[4] = target: Rasamsonia emersonii beta-glucosidase variant polypeptide 3 (SEQ ID NO: 2 with substitution G142S) (Rasamsonia emersonii, UniProt Q8TGI8, G142S); experiment: Kinetics of cellobiose hydrolysis with and without 20 g/l glucose (NMR, MTP scale, model fit), variant polypeptide 3; settings: 10 g/l cellobiose, pH 4.5, 65° C., 20 min; Km set to 0.1 g/L
Procedure: as §1, §2

[5] = target: Rasamsonia emersonii beta-glucosidase variant polypeptide 4 (SEQ ID NO: 2 with substitution L606A) (Rasamsonia emersonii, UniProt Q8TGI8, L606A); experiment: Kinetics of cellobiose hydrolysis with and without 20 g/l glucose (NMR, MTP scale, model fit), variant polypeptide 4; settings: 10 g/l cellobiose, pH 4.5, 65° C., 20 min; Km set to 0.1 g/L
Procedure: as §1, §2

[6] = target: T1, Rasamsonia emersonii beta-glucosidase, wild-type, SEQ ID NO: 2; experiment: Glucose inhibition of initial rate of cellobiose hydrolysis, 100 ml scale (HPLC), wild type; settings: 20 g/l glucose, 30 mM cellobiose, pH 4.5, 62° C., 4.5 μg/ml enzyme; read-out: Ratio (V0 in presence of glucose/V0 in absence of glucose)
Procedure: The hits selected from the MTP scale assay were subsequently further characterized by monitoring cellobiose conversion at multiple time points at a larger scale. The beta-glucosidase having the amino acid sequence of SEQ ID NO: 2 was used as reference (parent/wild-type beta-glucosidase). The assay was done as follows: the variant polypeptides and the reference beta-glucosidase were incubated at a concentration of 4.5 μg/ml in a 100 mM NaAc-buffer pH 4.5 with 30 mM cellobiose in a final volume of 100 ml for 2 hours at 62° C. under continuous stirring. […] The glucose and cellobiose content of the samples was determined using a High-Performance Liquid Chromatography System (Agilent 1100) equipped with a refection index detector (Agilent 1260 Infinity). […] The glucose and cellobiose were identified and quantified according to the retention time, which was compared to the external glucose and cellobiose standards ranging from 0.2; 0.4; 1.0; 2.0 g/l.
The concentration cellobiose was plotted against time and the linear part of this curve (the linear part of the cellobiose hydrolysis) was used to calculate the V0 (the initial rate of cellobiose hydrolysis) in the presence and absence of 20 g/l glucose. The ratio of these two calculated rates (V0 in presence of glucose/V0 in absence of glucose) was calculated for the wild-type beta-glucosidase and the variant polypeptides and is listed in Table 2. […]

Chain of Rasamsonia emersonii beta-glucosidase variant polypeptide 1 (SEQ ID NO: 2 with substitutions M90L + M335V + M485I) (Q8TGI8 entry or part of it M90L/M335V/M485I): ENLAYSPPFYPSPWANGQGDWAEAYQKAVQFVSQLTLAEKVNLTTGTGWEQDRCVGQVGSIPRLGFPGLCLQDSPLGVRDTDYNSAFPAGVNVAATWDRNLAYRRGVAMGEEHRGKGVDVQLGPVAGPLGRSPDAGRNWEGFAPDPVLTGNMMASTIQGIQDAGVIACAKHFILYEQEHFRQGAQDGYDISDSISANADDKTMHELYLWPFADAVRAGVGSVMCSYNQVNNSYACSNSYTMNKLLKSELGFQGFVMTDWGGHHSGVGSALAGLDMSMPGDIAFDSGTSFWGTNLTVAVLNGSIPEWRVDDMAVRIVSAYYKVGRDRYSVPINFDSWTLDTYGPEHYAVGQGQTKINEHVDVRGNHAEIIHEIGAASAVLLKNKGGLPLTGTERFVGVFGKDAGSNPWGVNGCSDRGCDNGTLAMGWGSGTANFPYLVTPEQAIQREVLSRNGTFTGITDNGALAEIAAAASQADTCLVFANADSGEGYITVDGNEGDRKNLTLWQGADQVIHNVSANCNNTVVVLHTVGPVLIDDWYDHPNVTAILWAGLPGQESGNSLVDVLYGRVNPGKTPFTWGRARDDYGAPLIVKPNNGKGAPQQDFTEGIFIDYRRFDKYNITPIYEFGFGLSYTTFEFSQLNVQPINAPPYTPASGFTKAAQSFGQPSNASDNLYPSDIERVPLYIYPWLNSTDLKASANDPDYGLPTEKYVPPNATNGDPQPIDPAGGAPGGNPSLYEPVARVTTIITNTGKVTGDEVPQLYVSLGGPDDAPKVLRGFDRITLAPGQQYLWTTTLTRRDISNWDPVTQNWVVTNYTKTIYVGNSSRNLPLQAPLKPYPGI
Chain of Rasamsonia emersonii beta-glucosidase variant polypeptide 4 (SEQ ID NO: 2 with substitution L606A) (Q8TGI8 entry or part of it L606A): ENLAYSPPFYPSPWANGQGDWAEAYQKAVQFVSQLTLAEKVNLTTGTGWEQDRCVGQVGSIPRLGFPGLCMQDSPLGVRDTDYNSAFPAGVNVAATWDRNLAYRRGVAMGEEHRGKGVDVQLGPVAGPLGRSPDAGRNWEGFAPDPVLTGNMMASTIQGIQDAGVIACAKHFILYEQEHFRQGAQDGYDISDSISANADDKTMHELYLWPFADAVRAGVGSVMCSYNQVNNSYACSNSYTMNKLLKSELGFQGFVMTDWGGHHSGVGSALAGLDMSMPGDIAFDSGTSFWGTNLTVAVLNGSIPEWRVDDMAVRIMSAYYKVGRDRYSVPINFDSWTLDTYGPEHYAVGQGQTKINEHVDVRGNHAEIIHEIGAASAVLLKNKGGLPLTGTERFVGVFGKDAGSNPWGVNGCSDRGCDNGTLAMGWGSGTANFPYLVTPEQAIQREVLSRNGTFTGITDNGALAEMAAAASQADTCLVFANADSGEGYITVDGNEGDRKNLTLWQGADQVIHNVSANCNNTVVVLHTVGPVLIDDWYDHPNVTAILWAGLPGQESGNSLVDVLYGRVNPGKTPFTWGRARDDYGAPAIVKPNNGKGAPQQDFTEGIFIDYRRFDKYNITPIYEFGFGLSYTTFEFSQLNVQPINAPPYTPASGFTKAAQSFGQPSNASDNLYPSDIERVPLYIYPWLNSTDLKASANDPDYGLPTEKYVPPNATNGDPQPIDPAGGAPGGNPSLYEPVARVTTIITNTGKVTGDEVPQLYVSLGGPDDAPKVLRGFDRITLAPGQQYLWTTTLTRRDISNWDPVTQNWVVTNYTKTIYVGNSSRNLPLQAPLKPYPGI
Chain of Rasamsonia emersonii beta-glucosidase variant polypeptide 3 (SEQ ID NO: 2 with substitution G142S) (Q8TGI8 entry or part of it G142S): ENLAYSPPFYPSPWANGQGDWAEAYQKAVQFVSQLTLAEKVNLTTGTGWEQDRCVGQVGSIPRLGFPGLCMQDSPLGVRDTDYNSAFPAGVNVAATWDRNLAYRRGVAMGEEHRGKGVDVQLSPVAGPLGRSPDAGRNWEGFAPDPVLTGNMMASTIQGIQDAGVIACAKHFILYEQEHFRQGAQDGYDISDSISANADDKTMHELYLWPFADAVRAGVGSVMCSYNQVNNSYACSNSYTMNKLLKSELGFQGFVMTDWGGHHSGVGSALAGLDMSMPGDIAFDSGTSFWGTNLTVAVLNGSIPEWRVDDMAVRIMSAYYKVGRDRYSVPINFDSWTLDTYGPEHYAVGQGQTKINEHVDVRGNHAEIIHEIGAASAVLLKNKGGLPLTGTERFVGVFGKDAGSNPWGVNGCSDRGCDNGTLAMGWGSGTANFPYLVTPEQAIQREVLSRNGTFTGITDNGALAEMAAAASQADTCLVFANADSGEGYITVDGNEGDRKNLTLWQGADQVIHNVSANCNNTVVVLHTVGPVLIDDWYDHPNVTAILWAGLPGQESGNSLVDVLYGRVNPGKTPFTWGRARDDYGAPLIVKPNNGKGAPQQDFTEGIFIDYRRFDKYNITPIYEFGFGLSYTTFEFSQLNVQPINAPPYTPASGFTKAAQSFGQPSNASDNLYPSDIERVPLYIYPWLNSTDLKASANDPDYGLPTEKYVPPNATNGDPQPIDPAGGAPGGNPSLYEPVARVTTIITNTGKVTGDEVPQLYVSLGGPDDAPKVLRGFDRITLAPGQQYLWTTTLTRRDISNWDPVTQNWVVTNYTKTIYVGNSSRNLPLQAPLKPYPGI
Chain of Rasamsonia emersonii beta-glucosidase variant polypeptide 2 (SEQ ID NO: 2 with substitution N103A) (Q8TGI8 entry or part of it N103A): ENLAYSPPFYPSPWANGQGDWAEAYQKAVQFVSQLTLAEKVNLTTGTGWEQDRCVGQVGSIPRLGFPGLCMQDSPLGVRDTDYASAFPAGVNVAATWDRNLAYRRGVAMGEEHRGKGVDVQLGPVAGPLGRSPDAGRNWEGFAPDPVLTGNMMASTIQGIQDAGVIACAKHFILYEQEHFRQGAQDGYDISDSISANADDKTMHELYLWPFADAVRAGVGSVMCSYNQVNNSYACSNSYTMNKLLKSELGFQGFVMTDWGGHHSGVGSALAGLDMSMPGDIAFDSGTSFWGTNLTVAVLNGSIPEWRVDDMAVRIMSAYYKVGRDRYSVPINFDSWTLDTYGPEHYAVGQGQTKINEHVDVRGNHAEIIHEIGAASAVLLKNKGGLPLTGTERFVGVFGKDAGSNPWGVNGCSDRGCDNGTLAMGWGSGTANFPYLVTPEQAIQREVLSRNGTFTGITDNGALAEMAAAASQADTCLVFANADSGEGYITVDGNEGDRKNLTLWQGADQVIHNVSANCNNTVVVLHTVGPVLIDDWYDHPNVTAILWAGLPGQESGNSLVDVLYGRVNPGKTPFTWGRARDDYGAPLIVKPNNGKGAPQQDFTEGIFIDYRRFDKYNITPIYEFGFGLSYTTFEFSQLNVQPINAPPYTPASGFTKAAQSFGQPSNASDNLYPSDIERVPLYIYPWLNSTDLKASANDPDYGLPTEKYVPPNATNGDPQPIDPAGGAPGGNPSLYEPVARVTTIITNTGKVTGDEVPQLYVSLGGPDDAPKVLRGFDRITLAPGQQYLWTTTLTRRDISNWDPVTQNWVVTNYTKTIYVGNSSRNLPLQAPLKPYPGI

Compound | kcat (cellobiose), model prediction [1] | kcat (cellobiose), model prediction [2] | kcat (cellobiose), model prediction [3] | kcat (cellobiose), model prediction [4] | kcat (cellobiose), model prediction [5] | activity at 20000 µg/mL [6]
OC[C@H]1O[C@@H](O[C@H]2[C@H](O)[C@@H](O)C(O)O[C@@H]2CO)[C@H](O)[C@@H](O)[C@@H]1O (stereo partly drawn) [cellobiose] | 1.0 unitless | 0.9 unitless | 1.1 unitless | 0.8 unitless | 2.7 unitless | 
OC[C@H]1OC(O)[C@H](O)[C@@H](O)[C@@H]1O (stereo partly drawn) [glucose] |  |  |  |  |  | 18%
